# Data as given in article PMC3592416 (Nucleic Acids Research, 2012).
# Experiments:
# PoTC [1] = molecular target: T1, PoTC (Saccharomyces cerevisiae, UniProt P02406+P0CX27); assay: Release of mRNA from PoTC; assay type: biochemical; conditions: for effect of Mg2+ on the inhibitory effect (mRNA release): 100 µM antibiotic, various concentrations of MgCl2
# eEF3/ribosomes = assay: ATP hydrolysis assay; assay type: biochemical, Saccharomyces cerevisiae; conditions: for amount of ATPase inhibited: total ATP hydrolysis 97 pmol
# PoTC [2] = molecular target: T1, PoTC; assay: Complete disassembly of PoTC by eEF3/ATP; assay type: biochemical; conditions: for inhibition of eEF3-dependent disassembly reaction: 1 mM antibiotic
# translocation = conditions: cited from earlier work
# vacant ribosomes = conditions: read-out: Kd with vacant ribosomes; cited from earlier work
# PoTC [3] = molecular target: T1, PoTC; conditions: inhibitor alone, without eEF2/GTP; cited from earlier work
# yeast ribosomal subunits = assay: Induction of subunit association; assay type: biochemical; conditions: 1 mM PAR, 5 s at 30°C after disassembly
# PoTC [4] = molecular target: T1, PoTC; conditions: cited from earlier work
# [5] = 1 mM antibiotic, 50 µM ATP, 0.5 µM eEF3, 1 min 30°C
# T1 sequence (P02406 2-149): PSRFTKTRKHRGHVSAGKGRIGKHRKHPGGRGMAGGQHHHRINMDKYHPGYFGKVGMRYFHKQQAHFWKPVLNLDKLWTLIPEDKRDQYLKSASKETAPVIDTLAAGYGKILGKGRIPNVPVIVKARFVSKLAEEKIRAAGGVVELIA
# T1 sequence (P0CX27 2-106): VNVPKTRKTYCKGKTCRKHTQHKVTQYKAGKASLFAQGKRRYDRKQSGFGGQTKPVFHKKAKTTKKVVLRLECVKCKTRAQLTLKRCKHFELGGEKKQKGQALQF
# T1 sequence (P16521 2-1044 partner): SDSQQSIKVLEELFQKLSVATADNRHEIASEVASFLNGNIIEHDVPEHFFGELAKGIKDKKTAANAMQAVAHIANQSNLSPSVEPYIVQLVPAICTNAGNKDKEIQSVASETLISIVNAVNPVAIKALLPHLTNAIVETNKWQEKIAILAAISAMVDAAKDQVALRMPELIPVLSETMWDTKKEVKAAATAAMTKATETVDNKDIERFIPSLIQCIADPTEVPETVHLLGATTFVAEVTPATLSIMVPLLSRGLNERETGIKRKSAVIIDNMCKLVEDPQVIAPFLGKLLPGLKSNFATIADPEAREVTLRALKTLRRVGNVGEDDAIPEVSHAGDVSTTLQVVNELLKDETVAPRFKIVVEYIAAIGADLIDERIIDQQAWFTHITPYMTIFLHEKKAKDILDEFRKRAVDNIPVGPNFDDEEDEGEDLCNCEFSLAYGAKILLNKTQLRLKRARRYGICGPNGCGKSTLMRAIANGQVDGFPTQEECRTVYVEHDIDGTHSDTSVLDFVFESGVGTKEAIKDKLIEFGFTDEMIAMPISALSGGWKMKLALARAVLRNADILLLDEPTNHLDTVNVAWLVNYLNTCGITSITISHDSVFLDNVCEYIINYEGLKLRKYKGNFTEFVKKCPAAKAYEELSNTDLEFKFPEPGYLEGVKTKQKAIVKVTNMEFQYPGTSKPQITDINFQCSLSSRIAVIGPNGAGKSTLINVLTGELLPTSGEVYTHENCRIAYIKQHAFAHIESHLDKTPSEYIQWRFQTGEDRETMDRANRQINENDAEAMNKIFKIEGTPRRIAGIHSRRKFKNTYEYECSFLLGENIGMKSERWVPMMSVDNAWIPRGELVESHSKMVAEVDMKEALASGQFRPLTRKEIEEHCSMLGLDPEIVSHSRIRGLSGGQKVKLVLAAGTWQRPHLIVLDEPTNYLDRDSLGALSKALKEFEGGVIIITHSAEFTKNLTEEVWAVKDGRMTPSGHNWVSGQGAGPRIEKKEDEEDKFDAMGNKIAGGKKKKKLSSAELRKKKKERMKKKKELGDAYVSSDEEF
SMILES,effect of Mg2+ on the inhibitory effect (mRNA release) (PoTC [1]),inhibition of ATP hydrolysis by eEF3/ribosomes (eEF3/ribosomes; [5]),amount of ATPase inhibited (eEF3/ribosomes; 1 mM antibiotic),inhibition of eEF3-dependent disassembly reaction (PoTC [2]),inhibition of eEF3-dependent release of mRNA from PoTC (PoTC [3]),other results
"C[C@@H]1C[C@@H]([C@H](O)CC2CC(=O)NC(=O)C2)C(=O)[C@@H](C)C1 [CHX, cycloheximide]",remarkable stimulatory effect,~20%,22 pmol,almost complete maximum inhibition,–,"mode of inhibition with respect to ATP (PoTC [1]; Lineweaver-Burk, mRNA release): non-competitive inhibitor; mode of inhibition with respect to eEF3 (PoTC [1]; Lineweaver-Burk, mRNA release): non-competitive inhibitor; IC50 (translocation; read-out: IC50 for the inhibition of translocation): 1.2 µM; Kd (vacant ribosomes): 15 µM"
"CO[C@H]1[C@@H](O)[C@H](O)[C@H](OC[C@@]23C[C@@H]4[C@H](C)CC[C@H]4[C@@]4(C=O)CC2C=C(C(C)C)[C@@]34C(=O)O)O[C@@H]1C [SOR, sordarin]",–,–,–,–,only slightly inhibit,–
"CC(=O)O[C@H]1C[C@@]2(C)[C@@H](C[C@@H](O)[C@H]3[C@@]4(C)CC[C@@H](O)[C@@H](C)[C@@H]4CC[C@@]32C)/C1=C(\CCC=C(C)C)C(=O)O [FA, fusidic acid]",–,–,–,–,only slightly inhibit,–
"NC[C@@H]1O[C@H](O[C@H]2[C@@H](O)[C@H](O[C@@H]3[C@@H](O)[C@H](N)C[C@H](N)[C@H]3O[C@H]3O[C@H](CO)[C@@H](O)[C@H](O)[C@H]3N)O[C@@H]2CO)[C@H](N)[C@@H](O)[C@@H]1O [PAR, paromomycin]",not significantly influenced,~20%,22 pmol,almost complete maximum inhibition,–,association of ribosomal subunits (yeast ribosomal subunits): re-associated yeast ribosomal subunits
"C/C(=C\[C@H](C)C(=O)C[C@H](O)CC1CC(=O)NC(=O)C1)[C@@H]1OC(=O)/C=C/CC/C=C/C=C\[C@@H]1C [LTM, lactimidomycin]",–,–,–,–,–,concentration at which maximum inhibition was obtained (PoTC [2]; three disassembly reactions): 100 µM; concentration which inhibits translocation almost completely (translocation): 200 µM
[O]=[V]([O-])([O-])[O-] [vanadate],–,–,–,–,–,amount of ATP hydrolysis inhibited (eEF3/ribosomes; vanadate positive control): 52 pmol; inhibition of ATP hydrolysis by eEF3/ribosomes (eEF3/ribosomes; vanadate positive control): about 50%; effect on the disassembly of PoTC (PoTC [4]): without inhibiting
